Source: patent publication US9200017B2, “Multimodal imaging of fibrin” (The General Hospital Corporation, priority 2009, dated 2015)

Target: T1, Thrombus (Rattus norvegicus, UniProt P02680+P06399+P14480)
T1 construct: thrombin cleaves fibrinopeptides on fibrinogen resulting in an end-to-end polymerization to give the polymer fibrin; A day old autologous blood clot was injected into the right internal carotid artery; from tissue; host or cells: autologous blood clot in the right internal carotid artery of Wistar rats
T1 sequence (P06399 37-550 isoform P06399-2 limits assumed): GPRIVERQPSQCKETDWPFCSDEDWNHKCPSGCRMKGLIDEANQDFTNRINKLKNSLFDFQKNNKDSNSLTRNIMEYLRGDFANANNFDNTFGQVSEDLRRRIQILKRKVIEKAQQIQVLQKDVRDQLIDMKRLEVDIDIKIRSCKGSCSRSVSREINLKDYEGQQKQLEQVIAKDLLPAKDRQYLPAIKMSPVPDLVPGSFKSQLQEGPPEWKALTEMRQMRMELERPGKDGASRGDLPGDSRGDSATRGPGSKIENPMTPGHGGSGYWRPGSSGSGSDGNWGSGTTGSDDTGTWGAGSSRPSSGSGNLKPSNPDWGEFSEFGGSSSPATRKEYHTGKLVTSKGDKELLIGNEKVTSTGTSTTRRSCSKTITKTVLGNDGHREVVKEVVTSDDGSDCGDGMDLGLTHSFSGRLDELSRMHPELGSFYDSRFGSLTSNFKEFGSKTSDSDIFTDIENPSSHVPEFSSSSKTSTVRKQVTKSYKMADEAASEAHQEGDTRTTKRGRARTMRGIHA
T1 sequence (P14480 33-479 limits assumed): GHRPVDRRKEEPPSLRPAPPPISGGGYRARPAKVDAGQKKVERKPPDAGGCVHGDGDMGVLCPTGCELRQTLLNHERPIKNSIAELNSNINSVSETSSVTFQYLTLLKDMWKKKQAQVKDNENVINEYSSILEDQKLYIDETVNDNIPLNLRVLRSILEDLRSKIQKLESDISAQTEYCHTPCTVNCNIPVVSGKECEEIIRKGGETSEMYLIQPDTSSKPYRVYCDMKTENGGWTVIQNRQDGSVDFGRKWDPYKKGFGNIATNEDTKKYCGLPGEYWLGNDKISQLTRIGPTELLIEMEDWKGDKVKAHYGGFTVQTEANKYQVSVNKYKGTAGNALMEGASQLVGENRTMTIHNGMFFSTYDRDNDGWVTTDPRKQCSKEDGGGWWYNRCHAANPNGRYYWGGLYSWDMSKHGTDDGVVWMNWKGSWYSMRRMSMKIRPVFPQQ
T1 sequence (P02680 26-437 isoform P02680-2 limits assumed): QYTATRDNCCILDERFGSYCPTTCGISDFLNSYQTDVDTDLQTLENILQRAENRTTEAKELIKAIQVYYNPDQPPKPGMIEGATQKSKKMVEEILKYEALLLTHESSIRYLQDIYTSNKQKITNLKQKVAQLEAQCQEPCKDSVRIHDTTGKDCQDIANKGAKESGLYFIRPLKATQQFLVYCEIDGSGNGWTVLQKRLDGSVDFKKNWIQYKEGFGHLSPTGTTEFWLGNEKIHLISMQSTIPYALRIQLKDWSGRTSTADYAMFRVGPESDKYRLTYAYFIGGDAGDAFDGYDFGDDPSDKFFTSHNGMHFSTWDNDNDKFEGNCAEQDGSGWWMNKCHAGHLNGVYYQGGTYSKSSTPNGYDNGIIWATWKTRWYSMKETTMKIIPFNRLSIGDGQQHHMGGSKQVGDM
Assay: MR-PET imaging of occlusive thrombus in right internal carotid artery of rats
Assay type: in vivo
Settings: for PET time-activity curve in thrombus: over 90 min, contralateral vessel signal decays with time; for Thrombus visibility on black-blood T1-weighted MR post injection: six animals imaged
Description: All animal studies were approved by the Subcommittee on Research Animal Care at Massachusetts General Hospital. The occlusive thrombus model was described previously (Zhang R L, Chopp M, Zhang Z G, Jiang Q, and Ewing J R., Brain Res. 1997 766(1-2):83-92). Briefly, male Wistar rats (350-400 g, n=8; Charles River Laboratories, Wilmington, Mass.) were anaesthetized with isoflurane (1-2% in 70% N2O and 30% O2) and body temperature was kept at 37.5° C. A day old autologous blood clot was injected into the right internal carotid artery (ICA) at the level of the middle cerebral artery (MCA). The femoral vein was cannulated for intravenous delivery of the contrast agent. Simultaneous PET and MR were acquired on a clinical 3T MRI-BrainPET scanner using a home-built receive surface coil and a CP transmit coil. After baseline MR scans were acquired, the dual MR-PET probe was injected at a dose of 11.5 μmol/kg (46 μmol Gd/kg, total activity=19.6±5.9 MBq). The animals were sacrificed 2 h post-injection. In total, six animals underwent imaging while in two additional animals only biodistribution data was collected.
The list-mode emission data from PET were rebinned in the sinogram space for fast reconstruction. The uncorrected PET volume was first reconstructed and binary segmented based on an empirically determined threshold in soft tissue and air. A uniform linear attenuation coefficient (0.096 cm^−1, corresponding to water at 511 keV) was assigned to all soft tissue voxels and the resulting attenuation map (combined with the coil attenuation map) was forward projected to derive the attenuation correction factors in sinogram space. A model-based approach was used to derive the scatter sinogram. The normalization was calculated from a 64 hr scan of a plane-source rotated in the FOV. The images were reconstructed with the ordinary Poisson ordered subsets expectation maximization (OP-OSEM) algorithm using 16 subsets and 6 iterations. The reconstructed volume consists of 153 slices with 256×256 pixels (1.25×1.25×1.25 mm^3). The spatial resolution at the center of the field of view is approximately 2.5 mm.
The emission data were recorded in list-mode format for approximately 90 min (9×10 min frames) after MR-PET probe administration. The data acquired in each individual frame were processed and images were reconstructed after acquisition for immediate analysis. Images were also reconstructed from the data acquired 30-90 minutes post injection. Additionally, thirty 3-minute frames were generated and the tracer uptake in structures of interest as a function of time was analyzed.
The MR imaging sequence included MP-RAGE and 3D T1-weighted gradient echo scans with and without inflow saturation. The latter were used for time of flight (TOF) angiography. The field of view scanned for the 3D sequences was 85×85 mm^2, with repetition time (TR), echo time (TE), and flip angle of 32 ms, 5.78 ms and 18°, respectively. […] For the MP-RAGE, the parameters used were inversion time TI=900 ms, TR/TE=2300/4.4, NEX=1, FOV=49×49 mm^2, matrix=192×192, slice thickness=0.26 mm for resolution=0.26 mm^3.
MR images were analyzed using OsiriX (www.osirix-viewer.com) by drawing regions of interest (ROI) in the thrombus, contralateral artery and adjacent tissue and quantifying signal intensity (SI). Noise was quantified as the standard deviation (SD) of the signal measured in the air outside the animal. Contrast to noise ratios (CNR) were calculated for the difference between tissue A and tissue B using the following equation (1). CNR(tissue A/tissue B)=[SI(tissue A)−SI(tissue B)]/SD(air) (1)
Signal intensity ratios (SIR) between the thrombus (ipsilateral) and contralateral vessel were calculated using equation (2) for images pre- and 10 min post-probe administration. SIR=[SI(ipsilateral)/SI(contralateral)]post/[SI(ipsilateral)/SI(contralateral)]pre (2) […]

Which results are given for Gd3-EP-2104R-Cu [Compound 21]?
CNRthrombus:brain post probe (black-blood MR, 11.5 μmol/kg i.v., pre-injection −2.0±2.2, p<0.005): 13.0±2.0; PET SIRipsi:contra (hyperintense lesion vs identical contralateral volume of interest, p<0.01): 1.85±0.48; PET time-activity curve in thrombus: rapid and static uptake in the thrombus; PET time-activity curve in thrombus (listed as Gd3-EP-2104R-^64Cu): activity remains approximately constant over 90 min; Thrombus visibility on black-blood T1-weighted MR post injection: now bright indicating the presence of thrombus; Thrombus visibility on black-blood T1-weighted MR post injection (listed as Gd3-EP-2104R-^64Cu): clearly visible; MR SIRpost/SIRpre (thrombus vs contralateral vessel, pre and 10 min post probe, p<0.01): 1.71±0.35
